Laboratory results taken from patent US8937193B2, “Apogossypolone derivatives as anticancer agents” (Sanford-Burnham Medical Research Institute, priority 2009, dated 2015).
Values joined by “and” are separate entries in the source; they are usually repeats but may differ in a detail not shown here. Equal values may be shown once. “Also recorded” adds a separate entry of the source.

What was measured:
[1] = administered orally (6a); cited from earlier work
[2] = system: BP3 cell line; assay: Annexin V-FITC and propidium iodide apoptosis assay, BP3; format: cell-based, human; details: for EC50: Homo sapiens, BP3, 24 h, Annexin V-FITC and propidium iodide assay, 1 day
Description: (§3) The apoptotic activity of the compounds against RS4;11, BP3 and primary CLL cells was assessed by staining with Annexin V-FITC and propidium iodide (PI). Cells were cultured in RPMI 1640 medium (Mediatech Inc., Herndon, Va. 20171) containing 10% fetal bovine serum (Mediatech Inc., Herndon, Va. 20171) and Penicillin/Streptomycin (Mediatech Inc., Herndon, Va. 20171). […] The percentage of viable cells was determined by FITC-Annexin V- and propidium iodide (PI)-labeling, using an Apoptosis Detection kit (BioVision Inc.), and analyzing stained cells by flow cytometry (FACSort; Bectin-Dickinson, Inc.; Mountain View, Calif.). Cells that were annexin-V-negative and PI-negative were considered viable.

[3] = EC50 values of FIG. 3(B); details: test not named
[4] = system: PC3 cell line; assay: ATP-LITE cell viability assay, PC3; format: cell-based; details: Homo sapiens, PC-3, 72 h, 3 days
Description: (§1) The activity of the compounds against human cancer cell lines (PC3, H460, H1299) were assessed by using the ATP-LITE assay (PerkinElmer). All cells were seeded in either […] or RPMI1640 medium with 5 mM L-glutamine supplemented with 5% fetal bovine serum (Mediatech Inc.), penicillin and streptomycin (Omega). For maintenance, cells were cultured in 5% FBS. Cells plated into 96 well plates at varying initial densities depending on doubling time. H460 and H1299 plated at 2000 cells/well and PC3 at 3000 cells/well. Compounds were diluted to final concentrations with 0.1% DMSO. Prior to dispensing compounds onto cells, fresh 5% media was placed into wells. Administration of compounds occurred 24 hours after seeding into the fresh media. Cell viability was evaluated using ATP-LITE reagent (PerkinElmer) after 72 hours of treatment. Data were normalized to the DMSO control-treated cells using Prism version 5.01 (Graphpad Software).

[5] = system: primary CLL cells; assay: Annexin-V apoptosis assay, primary CLL cells; format: cell-based, human
Description: as §3

[6] = system: H460 cell line; assay: ATP-LITE cell viability assay, H460; format: cell-based; details: Homo sapiens, NCI-H460, 72 h, 3 days
Description: (§2) The activity of the compounds of Formula I against human cancer cell lines (PC3ML, H460, H1299, RS11846) may be assessed by using the ATP-LITE assay (PerkinElmer). All cells are seeded in either F12 or RPMI1640 medium with 5 mM L-glutamine supplemented with 5% fetal bovine serum (Mediatech Inc.), penicillin and streptomycin (Omega). For maintenance, cells are cultured in 5% FBS. Cells plated into 96 well plates at varying initial densities depending on doubling time. H460 and H1299 plated at 2000 cells/well, A549 and PC3 at 3000 cells/well, and […] at 10,000 cells/well. The compounds are diluted to final concentrations with 0.1% DMSO. Prior to dispensing the compounds onto cells, fresh 5% media is placed into the wells. Administration of compounds occurs 24 hours after seeding into the fresh media. Cell viability may be evaluated using ATP-LITE reagent (PerkinElmer) after 72 hours of treatment. Data are normalized to the DMSO control-treated cells using Prism version 5.01 (Graphpad Software).
as §1

[7] = system: H1299 cell line; assay: ATP-LITE cell viability assay, H1299; format: cell-based; details: Homo sapiens, NCI-H1299, 72 h, 3 days
Description: as §2, §1

[8] = In vitro plasma stability; details: for Plasma Stability (T = 40 mins): Table 4; for degraded after 1 hour incubation in rat plasma: rat plasma (preparations)
Description: (§4) To test the pharmacological properties of the compounds of Formula I, the in vitro plasma stability, microsomal stability, and cell membrane permeability may be determined.

[9] = In vitro microsomal stability; details: Table 4
Description: as §4

[10] = system: RS4;11 cell line; assay: Annexin V-FITC and propidium iodide apoptosis assay, RS4;11; format: cell-based; details: Homo sapiens, RS4-11, 24 h, 1 day
Description: as §3

[11] = system: PPC-1 xenograft tumors; assay: PPC-1 tumor xenograft study in nude mice
Description: Female 6-week-old nude mice were purchased from Charles River Laboratories. 5×10^6 PCC-1 cells suspended in 0.2 ml PBS were injected subcutaneously into a flank region of each nude mouse. Tumor bearing mice were size matched (200 mm^3) into treatment and control group, ear tagged, and monitored individually. Tumor volume was measured two to three times weekly by digital calipers (volume=length×width^2/2). All studies use 6 mice per group. […] Control mice received saline. The injections were given three times in first week, twice in second week and once in third week and a total of six injections were administered during the experiment. When all tumors of the control group exceed 2000 mm^3 in volume, the animal experiment was terminated. Tumor growth inhibition ratios (T/C %) were calculated by dividing the average tumor volume in the treatment group by the average tumor volume in the control group.

[12] = target: Bcl-XL (Homo sapiens (Human), UniProt Q07817); assay: Fluorescence polarization competitive binding assay (FPA), Bcl-XL; details: displacement of BH3 peptide
Sequence of Bcl-XL (Q07817 1-211): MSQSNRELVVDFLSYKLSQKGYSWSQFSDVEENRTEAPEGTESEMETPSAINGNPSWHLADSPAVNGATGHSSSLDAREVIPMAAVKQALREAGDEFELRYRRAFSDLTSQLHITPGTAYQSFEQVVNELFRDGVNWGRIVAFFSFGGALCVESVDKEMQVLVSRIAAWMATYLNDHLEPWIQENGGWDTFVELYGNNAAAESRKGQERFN
Description: For competitive binding assays, 100 nM GST-BCL-XL ΔTM protein was preincubated with the tested compound at varying concentrations in 47.5 μL PBS (pH=7.4) in 96-well black plates at room temperature for 10 min, then 2.5 μL of 100 nM FITC-labeled Bak BH3 peptide was added to produce a final volume of 50 μL. The wild-type and mutant Bak BH3 peptides were included in each assay plate as positive and negative controls, respectively. After 30 min incubation at room temperature, the polarization values in millipolarization units were measured at excitation/emission wavelengths of 480/535 nm with a multilabel plate reader (PerkinElmer). IC50 was determined by fitting the experimental data to a sigmoidal dose-response nonlinear regression model (SigmaPlot 10.0.1, Systat Software, Inc., San Jose, Calif., USA). Data reported are mean of three independent experiments±standard error (SE). […] Fluorescence polarization was measured after 10 min.

| SMILES | EC50 [4] [nM] | EC50 [6] [nM] | EC50 [7] [nM] | Plasma Stability (T = 40 mins) [8] [%] | other results |
| --- | --- | --- | --- | --- | --- |
| Cc1cc2c(C(C)C)c(O)c(O)c(C=O)c2c(O)c1-c1c(C)cc2c(C(C)C)c(O)c(O)c(C=O)c2c1O [(−) 1] | – | – | – | – | maximum tolerated dose (MTD) [1]: 50 mg/kg |
| CN(C)CC[C@H](CSc1ccccc1)Nc1ccc(S(=O)(=O)NC(=O)c2ccc(N3CCN(Cc4ccccc4-c4ccc(Cl)cc4)CC3)cc2)cc1[N+](=O)[O-] [ABT-737, reference compound] | – | – | – | – | cell (cytotoxic) activity against BP3 cell lines ([2]; result in words): no cell activity; also recorded: no cytotoxic activity |
| Cc1cc2c(C(=O)Cc3ccccc3)c(O)c(O)cc2c(O)c1-c1c(C)cc2c(C(=O)Cc3ccccc3)c(O)c(O)cc2c1O [BI79D10] | – | – | – | – | EC50 [3]: 360 nM |
| CC1=C(C2=C(C)C(=O)c3c(cc(O)c(O)c3CC3CCCC3)C2=O)C(=O)c2cc(O)c(O)c(CC3CCCC3)c2C1=O [Compound 6c, 5,5′-bis(cyclopentylmethyl)-6,6′,7,7′-tetrahydroxy-3,3′-dimethyl-2,2′-binaphthyl-1,1′,4,4′-tetraone] | 5500 ± 740 | 700 ± 340 | 2320 ± 510 | – | LD50 primary CLL samples ([5]; comparison of 6c with 6a): 6.5 µM |
| CC1=C(C2=C(C)C(=O)c3c(cc(O)c(O)c3CCC3CCCCC3)C2=O)C(=O)c2cc(O)c(O)c(CCC3CCCCC3)c2C1=O [Compound 6d, 5,5′-bis(2-cyclohexylethyl)-6,6′,7,7′-tetrahydroxy-3,3′-dimethyl-2,2′-binaphthyl-1,1′,4,4′-tetraone] | 2400 ± 240 | 2200 ± 760 | 1320 ± 300 | 74 | Microsomal Stability (T = 40 mins) [9]: 98% |
| CC1=C(C2=C(C)C(=O)c3c(cc(O)c(O)c3CCc3ccccc3)C2=O)C(=O)c2cc(O)c(O)c(CCc3ccccc3)c2C1=O [Compound 6e, 6,6′,7,7′-tetrahydroxy-3,3′-dimethyl-5,5′-diphenethyl-2,2′-binaphthyl-1,1′,4,4′-tetraone] | 1400 ± 140 | 1040 ± 130 | 850 ± 360 | 81 | EC50 [2]: 8720 ± 2530 nM; EC50 [10]: 4750 ± 10 nM; Microsomal Stability (T = 40 mins) [9]: 89% |
| CC1=C(C2=C(C)C(=O)c3c(cc(O)c(O)c3CCc3ccc(C)cc3)C2=O)C(=O)c2cc(O)c(O)c(CCc3ccc(C)cc3)c2C1=O [Compound 6f, 6,6′,7,7′-tetrahydroxy-3,3′-dimethyl-5,5′-bis(4-methylphenethyl)-2,2′-binaphthyl-1,1′,4,4′-tetraone] | – | – | – | 86 | average body weight losses during the treatment ([11]; 50 mg/kg i.p.): 6.8%; signs of toxicity ([11]; 50 mg/kg i.p.): no observable signs of toxicity; weight loss in first week ([11]; 50 mg/kg i.p. three times in first week): ~5%; degraded after 1 hour incubation in rat plasma [8]: 14%; LD50 primary CLL samples ([5]; six CLL samples from six different patients): 1.0 to 16.9 µM; LD50 primary CLL samples ([5]; two primary CLL samples, one day Annexin-V apoptosis assay): 10 µM and 15 µM |
| CC1=C(C2=C(C)C(=O)c3c(cc(O)c(O)c3CCCc3ccccc3)C2=O)C(=O)c2cc(O)c(O)c(CCCc3ccccc3)c2C1=O [Compound 6g, 6,6′,7,7′-tetrahydroxy-3,3′-dimethyl-5,5′-bis(3-phenylpropyl)-2,2′-binaphthyl-1,1′,4,4′-tetraone] | 1300 ± 180 | 920 ± 90 | 1530 ± 410 | 87 | EC50 [10]: 3830 ± 700 nM; Microsomal Stability (T = 40 mins) [9]: 88% |
| CC1=C(C2=C(C)C(=O)c3c(cc(O)c(O)c3CCC(C)(C)c3ccccc3)C2=O)C(=O)c2cc(O)c(O)c(CCC(C)(C)c3ccccc3)c2C1=O [Compound 6h, 6,6′,7,7′-tetrahydroxy-3,3′-dimethyl-5,5′-bis(3-methyl-3-phenylbutyl)-2,2′-binaphthyl-1,1′,4,4′-tetraone] | 2000 ± 170 | 1620 ± 160 | 2160 ± 270 | – | – |
| CC1=C(C2=C(C)C(=O)c3c(cc(O)c(O)c3Cc3ccccc3)C2=O)C(=O)c2cc(O)c(O)c(Cc3ccccc3)c2C1=O [Compound 6i, 5,5′-dibenzyl-6,6′,7,7′-tetrahydroxy-3,3′-dimethyl-2,2′-binaphthyl-1,1′,4,4′-tetraone] | – | – | – | 95 | degraded after 1 hour incubation in rat plasma [8]: 5%; IC50 [12]: 160 to 630 nM |
| CC1=C(C2=C(C)C(=O)c3c(cc(O)c(O)c3CCc3ccc(OC(F)(F)F)cc3)C2=O)C(=O)c2cc(O)c(O)c(CCc3ccc(OC(F)(F)F)cc3)c2C1=O [Compound 6j, 6,6′,7,7′-tetrahydroxy-3,3′-dimethyl-5,5′-bis(4-(trifluoromethoxy)phenethyl)-2,2′-binaphthyl-1,1′,4,4′-tetraone] | 8990 ± 2490 | 1440 ± 200 | 2380 ± 210 | – | – |
| CC1=C(C2=C(C)C(=O)c3c(cc(O)c(O)c3CCCc3ccc(F)cc3)C2=O)C(=O)c2cc(O)c(O)c(CCCc3ccc(F)cc3)c2C1=O [Compound 6k, 5,5′-bis(3-(4-fluorophenyl)propyl)-6,6′,7,7′-tetrahydroxy-3,3′-dimethyl-2,2′-binaphthyl-1,1′,4,4′-tetraone] | 2620 ± 310 | 1480 ± 20 | 1910 ± 170 | – | – |
| CC1=C(C2=C(C)C(=O)c3c(cc(O)c(O)c3Cc3ccc(Cl)cc3)C2=O)C(=O)c2cc(O)c(O)c(Cc3ccc(Cl)cc3)c2C1=O [Compound 6l, 5,5′-bis(4-chlorobenzyl)-6,6′,7,7′-tetrahydroxy-3,3′-dimethyl-2,2′-binaphthyl-1,1′,4,4′-tetraone] | – | – | – | – | IC50 [12]: 160 to 630 nM |
| CC1=C(C2=C(C)C(=O)c3c(cc(O)c(O)c3Cc3ccc(-c4ccccc4)cc3)C2=O)C(=O)c2cc(O)c(O)c(Cc3ccc(-c4ccccc4)cc3)c2C1=O [Compound 6m, 5,5′-bis(biphenyl-4-ylmethyl)-6,6′,7,7′-tetrahydroxy-3,3′-dimethyl-2,2′-binaphthyl-1,1′,4,4′-tetraone] | 2970 ± 980 | 980 ± 150 | 10300 ± 3840 | – | – |
| CC1=C(C2=C(C)C(=O)c3c(cc(O)c(O)c3C(=O)Cc3ccccc3)C2=O)C(=O)c2cc(O)c(O)c(C(=O)Cc3ccccc3)c2C1=O [Compound 7, 6,6′,7,7′-Tetrahydroxy-3,3′-dimethyl-5,5′-bis(2-phenylacetyl)-2,2′-binaphthyl-1,1′,4,4′-tetraone] | 5440 ± 240 | 7380 ± 1070 | > 30000 | – | EC50 [2]: 9580 ± 4160 nM; IC50 [12]: 160 to 630 nM |
| CC1=C(C2=C(C)C(=O)c3c(cc(O)c(O)c3C(=O)NCC(C)c3ccccc3)C2=O)C(=O)c2cc(O)c(O)c(C(=O)NCC(C)c3ccccc3)c2C1=O (centres unmarked) [Compound 8a, 6,6′,7,7′-Tetrahydroxy-3,3′-dimethyl-1,1′,4,4′-tetraoxo-N^5,N^5′-bis(2-phenylpropyl)-1,1′,4,4′-tetrahydro-2,2′-binaphthyl-5,5′-dicarboxamide] | – | – | > 30000 | 91 | IC50 [12]: 160 to 630 nM; Microsomal Stability (T = 40 mins) [9]: 71% |
| CC1=C(C2=C(C)C(=O)c3c(cc(O)c(O)c3C(=O)NCc3cccc(C)c3)C2=O)C(=O)c2cc(O)c(O)c(C(=O)NCc3cccc(C)c3)c2C1=O [Compound 8b, 6,6′,7,7′-tetrahydroxy-3,3′-dimethyl-N^5,N^5′-bis(3-methylbenzyl)-1,1′,4,4′-tetraoxo-1,1′,4,4′-tetrahydro-2,2′-binaphthyl-5,5′-dicarboxamide] | 5440 ± 340 | 6160 ± 1480 | > 30000 | – | – |
| CCc1ccc(CCNC(=O)c2c(O)c(O)cc3c2C(=O)C(C)=C(C2=C(C)C(=O)c4c(cc(O)c(O)c4C(=O)NCCc4ccc(CC)cc4)C2=O)C3=O)cc1 [Compound 8c, N^5,N^5′-Bis(4-ethylphenethyl)-6,6′,7,7′-tetrahydroxy-3,3′-dimethyl-1,1′,4,4′-tetraoxo-1,1′,4,4′-tetrahydro-2,2′-binaphthyl-5,5′-dicarboxamide] | – | – | – | – | IC50 [12]: 160 to 630 nM |
| Cc1cc2c(C(C)C)c(O)c(O)c(C=O)c2c(O)c1-c1c(C)cc2c(C(C)C)c(O)c(O)c(C=O)c2c1O [Gossypol, 1,1′,6,6′,7,7′-Hexahydroxy-5,5′-diisopropyl-3,3′-dimethyl-2,2′-binaphthyl-8,8′-dicarboxaldehyde] | – | – | – | – | mortality in first week ([11]; 25 mg/kg, i.p.): died |
